The record followed here is US4011330A, “Vincaminic acid amides” (Synthelabo, priority 1974, dated 1977).

Read-outs that look alike come from different tables or passages of the source.

A short description of series [1]: Solubility in water (remark in preparation example). Conditions: base. The format is physicochemical.
A further series has as its system mice of strain CD1. The series can be described thus: Anoxia test on mice under low (oxygen) pressure conditions. It is filed as in vivo. The conditions noted are these: Mus musculus, ip, intraperitoneally 10 minutes before the test, 190 mm of mercury (5.25% of oxygen), read-out: MAD (mean active dose, the dose which increases the survival time by 100%). As for the experimental part: Anoxia test on mice under low (oxygen) pressure conditions
Mice of strain CD1 are kept in an atmosphere depleted in oxygen, by producing a partial vacuum (190 mm of mercury, corresponding to 5.25% of oxygen).
The survival time of the animals is noted. This time is increased by agents capable of assisting tissue oxygenation and in particular cerebral oxygenation. The compounds studied are administered in several doses intraperitoneally 10 minutes before the test. The percentage increases in the survival time relative to the values obtained with control animals are calculated. The mean active dose (MAD), the dose which increases the survival time by 100%, is determined graphically.

The nature of series [2]: Acute toxicity (LD50) in mice. It is filed as in vivo. Conditions: mouse, in vivo, mice, compounds tested in a solution containing ascorbic acid; for LD50 at 168 h: oral, mortality over 7 days. As for the experimental part: (§1) The compounds were administered orally to mice of the CD1 strain. The mortality was recorded over 7 days and the 50% lethal doses (LD50) were determined graphically.
(§2) The toxicities on intraperitoneal and intravenous administration were determined in accordance with the method of Miller and Taniter (Proc. Soc. Exp. Biol. Med. 1944- vol 57, page 261).

Another series relates to mice of the CD1 strain. As to the kind of experiment: Acute toxicity (LD50) in mice. It is filed as in vivo. As for the experimental part:
as §1, §2

[3] abbreviates: ip, intraperitoneal, read-out: LD50 intraperitoneal.
The mark [4] stands for this setting: intravenous, read-out: LD50 intravenous.

In the case of `CCC12CCCN3CCc4c(n(c5ccccc45)C(C(=O)NC4CCCCC4)C1)C32` (stereo not shown) [S.L.D. 135, N-cyclohexyldesoxyvincaminamide], the water solubility entry in series [1] is reported as “water-insoluble”.
In the case of `CCC12CCCN3CCc4c(n(c5ccccc45)C(C(N)=O)C1)C32` (stereo not shown) [SLC 156, Desoxyvincaminamide], in the series with mice of strain CD1, the ED (100% increase in survival time) came to 1.8 mg/kg. Also, the figures for the LD50 in series [2] (setting [3]) and in series [2] (setting [4]) were 210 mg/kg and 109 mg/kg, respectively. Further, the LD50 at 168 h in series [2] came out at 607 mg/kg.
Take `CCC12CCCN3CCc4c(n(c5ccccc45)C(C(=O)NC4CC4)C1)C32` (stereo not shown) [SLD 105, N-cyclopropyldesoxyvincaminamide]: the ED (100% increase in survival time) with mice of strain CD1 stood at 1 mg/kg. Moreover, in series [1], the water solubility result is “water-insoluble”. In addition, in the series on mice of the CD1 strain (inferred from oral/intravenous LD50 ratio), the “resorption by the digestive tract” value is reported as “good”. In addition, the “ratio of the LD50 for oral administration to the LD50 for intravenous administration” value in the series on mice of the CD1 strain (mice, oral/intravenous) is reported as “low”. For the same compound, the LD50 was 165 mg/kg in series [2] (setting [3]) and 76 mg/kg in series [2] (setting [4]). The compound also yielded a median lethal dose (LD50) at 168 h in series [2] of 290 mg/kg.
With `CCC12C=C(C(=O)NC3CC3)n3c4c(c5ccccc53)CCN(CCC1)C42` (stereo not shown) [SLD 121, N-monocyclopropylapovincaminamide], in the series on mice of strain CD1, the ED (100% increase in survival time) stood at 2.5 mg/kg.
Still for that read-out and setting: in the case of `CCC12CCCN3CCc4c(n(c5ccccc45)C(C(=O)NC4CCC4)C1)C32` (stereo not shown) [SLD 142, N-cyclobutyldesoxyvincaminamide] it was 0.5 mg/kg.
For the compound `CC[C@]12CCCN3CCc4c(n(c5ccccc45)[C@@](O)(C(=O)OC)C1)[C@@H]32` [Vincamine, reference compound], in the series with mice of strain CD1, the ED (100% increase in survival time) was 8 mg/kg. In series [2] (setting [4]), the LD50 was 75 mg/kg.
